Measured values published in PubChem BioAssay AID248 (DTP/NCI, 2004).
Where “and” joins values, the source holds several entries; their conditions need not be identical. Equal values may be shown once. Inconclusive results and toxic doses are left out. Cut-off read from the data, not from the text of the source: active = T/C of 150% or more; inactive = T/C below 125%.

Tested on: L1210 leukemia ip in BDF1 mice, survival T/C
Experiment: NCI In Vivo Anticancer Drug Screen. Data for tumor model L1210 Leukemia (intraperitoneal) in B6D2F1 (BDF1) mice
Conditions: endpoint: mean survival time, higher = longer survival
Method in brief: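 Read-out is survival time, reported as the treated-group measurement over the vehicle-control measurement.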

[1] = dose: 50.0 mg/kg/injection, schedule: Q01DX001 (ip), vehicle: saline
[2] = dose: 100.0 mg/kg/injection, schedule: Q01DX001 (ip), vehicle: saline
[3] = dose: 200.0 mg/kg/injection, schedule: Q01DX001 (ip), vehicle: saline
[4] = dose: 400.0 mg/kg/injection, schedule: Q01DX001 (ip), vehicle: saline
[5] = dose: 100.0 mg/kg/injection, schedule: Q01DX009 (ip), vehicle: saline with Tween-80
[6] = dose: 200.0 mg/kg/injection, schedule: Q01DX009 (ip), vehicle: saline with Tween-80
[7] = dose: 400.0 mg/kg/injection, schedule: Q01DX009 (ip), vehicle: saline with Tween-80

Measured: T/C

CCOC1(O)C(=O)c2ccccc2OC1(OCC)c1ccccc1 (stereo not given)
inactive: [1] 93 % of control | [2] 96 % of control | [3] 96 % of control | [4] 98 % of control

CCSc1ccc2c(c1)N(CCCN1CCN(C)CC1)c1ccccc1S2
inactive: dose: 3.12 mg/kg/injection, schedule: Q01DX009 (ip), vehicle: saline 110 % of control | dose: 6.25 mg/kg/injection, schedule: Q01DX009 (ip), vehicle: saline 107 % of control | dose: 6.25 mg/kg/injection, schedule: Q04DX003 (ip), vehicle: saline 93 % of control | dose: 12.5 mg/kg/injection, schedule: Q01DX009 (ip), vehicle: saline 100 % of control | dose: 12.5 mg/kg/injection, schedule: Q04DX003 (ip), vehicle: saline 100 % of control and 101 % of control | dose: 25.0 mg/kg/injection, schedule: Q01DX009 (ip), vehicle: saline 113 % of control | dose: 25.0 mg/kg/injection, schedule: Q04DX003 (ip), vehicle: saline 96 % of control and 97 % of control and 103 % of control | dose: 50.0 mg/kg/injection, schedule: Q01DX009 (ip), vehicle: saline 98 % of control | dose: 50.0 mg/kg/injection, schedule: Q04DX003 (ip), vehicle: saline 100 % of control and 110 % of control | dose: 100.0 mg/kg/injection, schedule: Q04DX003 (ip), vehicle: saline 114 % of control and 104 % of control and 110 % of control

O=c1[nH]c(-c2ccccc2)c(CO)c(=O)[nH]1
inactive: dose: 75.0 mg/kg/injection, schedule: Q04DX003 (ip), vehicle: Klucel (hydroxypropylcellulose) (HPC) 103 % of control | dose: 100.0 mg/kg/injection, schedule: Q01DX001 (ip), vehicle: Klucel (hydroxypropylcellulose) (HPC) 96 % of control | dose: 150.0 mg/kg/injection, schedule: Q04DX003 (ip), vehicle: Klucel (hydroxypropylcellulose) (HPC) 97 % of control | dose: 200.0 mg/kg/injection, schedule: Q01DX001 (ip), vehicle: Klucel (hydroxypropylcellulose) (HPC) 102 % of control | dose: 300.0 mg/kg/injection, schedule: Q04DX003 (ip), vehicle: Klucel (hydroxypropylcellulose) (HPC) 105 % of control | dose: 400.0 mg/kg/injection, schedule: Q01DX001 (ip), vehicle: Klucel (hydroxypropylcellulose) (HPC) 109 % of control

CN(C)CCOC(=O)c1ccccc1CCl
inactive: dose: 10.0 mg/kg/injection, schedule: Q01DX009 (ip), vehicle: saline 101 % of control | dose: 20.0 mg/kg/injection, schedule: Q01DX009 (ip), vehicle: saline 98 % of control | dose: 40.0 mg/kg/injection, schedule: Q01DX009 (ip), vehicle: saline 98 % of control

Cn1c(=O)cn[nH]c1=O
inactive: dose: 50.0 mg/kg/injection, schedule: Q01DX009 (ip), vehicle: saline with Tween-80 100 % of control | [5] 108 % of control | [6] 103 % of control

CC(=O)OC1=C(c2ccccc2)C(=O)c2ccccc21
inactive: dose: 40.0 mg/kg/injection, schedule: Q01DX009 (ip), vehicle: Klucel (hydroxypropylcellulose) (HPC) 94 % of control | dose: 75.0 mg/kg/injection, schedule: Q01DX001 (ip), vehicle: Klucel (hydroxypropylcellulose) (HPC) 95 % of control | dose: 75.0 mg/kg/injection, schedule: Q01DX009 (ip), vehicle: Klucel (hydroxypropylcellulose) (HPC) 94 % of control | dose: 150.0 mg/kg/injection, schedule: Q01DX001 (ip), vehicle: Klucel (hydroxypropylcellulose) (HPC) 96 % of control | dose: 150.0 mg/kg/injection, schedule: Q01DX009 (ip), vehicle: Klucel (hydroxypropylcellulose) (HPC) 88 % of control

CCCCC/C=C\C/C=C/CCCCCCCC1=NC(C)(CO)CO1 (stereo not given)
inactive: [2] 92 % of control | [3] 98 % of control | [4] 98 % of control

OC(Cc1ccccc1)c1ccccc1 (stereo not given)
inactive: [1] 100 % of control | [2] 100 % of control | [5] 89 % of control | [3] 93 % of control | [6] 98 % of control | [4] 93 % of control | [7] 95 % of control

COC1(OC)C(Cl)=C(Cl)C2C1C1(Cl)C(Cl)=C(Cl)C2(Cl)C1(OC)OC (stereo not given)
inactive: [5] 98 % of control | [6] 98 % of control | [7] 96 % of control

C[N+](C)(C)CC1COCCO1 (stereo not given)
inactive: dose: 5.0 mg/kg/injection, schedule: Q01DX001 (ip), vehicle: saline 105 % of control
